Reference: article PMC9230136 (Pharmaceutics, 2022)
Read-outs that look alike come from different tables or passages of the source.

Key:
[1] = test system: Bovine brain tubulin; assay: Inhibition of [3H]colchicine binding to tubulin; conditions: tubulin 0.5 µM, [3H]colchicine 5 µM, compound 5 µM
Method: (§1) Bovine brain tubulin was purified as described previously. To evaluate the effects of the compounds on tubulin assembly in vitro [35], varying concentrations were preincubated with 10 μM tubulin in 0.8 M monosodium glutamate (pH 6.6) at 30 °C and the reaction mixtures then cooled to 0 °C. After addition of GTP, the mixtures were transferred to 0 °C cuvettes in Beckman Coulter (Brea, CA, USA) DU-7400/DU-7500 recording spectrophotometers equipped with electronic temperature controllers and warmed to 30 °C, and the assembly of tubulin was observed turbidimetrically. […] Inhibition of colchicine binding to tubulin was measured as described before, except that the reaction mixtures contained 0.5 μM tubulin and 5 μM each of [^3H]colchicine and test compound. Only one DEAE-cellulose filter was used per sample, and filtration was by gravity.

[2] = test system: Bovine brain tubulin; assay: Inhibition of tubulin polymerization; assay type: biochemical; conditions: tubulin at 10 μM; read-out: Tubulin Assembly IC50 ± SD
Method: as §1

[3] = test system: Jurkat; assay: Antiproliferative assay (resazurin, 72 h); assay type: cell-based, human; conditions: for IC50: mean ± SE, 72 h; for fold increase in activity relative to 7ad: Jurkat cells
Method: (§2) Colon adenocarcinoma (HT-29) and T-cell leukemia (Jurkat) cells were grown in RPMI-1640 medium (Gibco, Milano, Italy). Promyelocytic leukemia cells (HL-60), non-small cell lung carcinoma (A549), cervix carcinoma (HeLa) and breast adenocarcinoma (MDA-MB-231) cells were grown in DMEM medium (Gibco, Milano, Italy). Both media were supplemented with 115 units/mL of penicillin G (Gibco, Milano, Italy), 115 μg/mL of streptomycin (Invitrogen, Milano, Italy) and 10% fetal bovine serum (Invitrogen, Milano, Italy). All the cell lines used were purchased from the American Type Culture Collection (ATCC, Manassas, VA, USA). Stock solutions (10 mM) of the compounds were obtained by dissolving them in DMSO.
(§3) The cells were seeded in 96-well plates at the appropriate density for each cell line. After 24 h, the cells were treated by performing serial 5-fold dilutions of the tested compounds starting from a concentration of 10 μM. All experimental conditions were tested in triplicate for statistical analysis. The plates were incubated for 72 h at 37 °C in a humidified 5% CO2 atmosphere. At the end of the incubation period, 10 μL of 100 μg/mL resazurin solution was added to each well; then, the plate was re-incubated for 3–4 h. The fluorescence of the wells in each plate was monitored using a Spark 10 M spectrophotometer (Tecan Group Ltd., Mannedorf, Switzerland) with a 535 nm excitation wavelength and a 600 nm emission wavelength.

[4] = test system: A549; assay: Antiproliferative assay (resazurin, 72 h); assay type: cell-based, human
Method: as §2, §3

[5] = test system: HT-29; assay: Antiproliferative assay (resazurin, 72 h); assay type: cell-based, human; conditions: mean ± SE, 72 h
Method: as §2, §3

[6] = test system: MDA-MB-231; assay: Antiproliferative assay (resazurin, 72 h); assay type: cell-based, human
Method: as §2, §3

[7] = test system: HeLa; assay: Antiproliferative assay (resazurin, 72 h); assay type: cell-based, human
Method: as §2, §3

[8] = test system: A549, MDA-MB-231, HeLa, HT-29 and Jurkat cancer cell lines; assay: Antiproliferative activity over the panel of cancer cell lines; assay type: cell-based, human; conditions: for IC50: Homo sapiens; for fold reduction in potency (vs 7y): MDA-MB-231 and HT-29 cells
Method: as §2, §3

[9] = read-out: IC50 values (2-para-substituted phenyl derivatives)
[10] = Homo sapiens, A549, Table 1, mean ± SE
[11] = Homo sapiens, MDA-MB-231, Table 1, mean ± SE, 72 h
[12] = Homo sapiens, HeLa, Table 1, mean ± SE
[13] = Homo sapiens, A549, Table 2, mean ± SE
[14] = Homo sapiens, MDA-MB-231, Table 2, mean ± SE, 72 h
[15] = Homo sapiens, HeLa, Table 2, mean ± SE
[16] = four of the five cell lines, read-out: IC50 values against four of the five cell lines

Row | Structure (SMILES) | melting point | IC50 ([3]; Homo sapiens, Jurkat, Table 1) | IC50 [4, 10] | IC50 ([5]; Homo sapiens, HT-29, Table 1) | IC50 [6, 11] | IC50 [7, 12] | IC50 ([3]; Homo sapiens, Jurkat, Table 2) | IC50 [4, 13] | IC50 ([5]; Homo sapiens, HT-29, Table 2) | IC50 [6, 14] | IC50 [7, 15] | IC50 [8, 16] | further results
1 | C#Cc1cccc(Nc2cc(C)nc3nc(NCCCc4ccccc4)nn23)c1 [Compound 8v] | – | – | – | – | – | – | – | – | – | – | – | – | Colchicine Binding % Inhibition ± SD [1]: 70 ± 3%; IC50 [2]: 430 ± 50 nM; IC50 ([3]; Table 2): 160 ± 10 nM; IC50 ([4]; Table 2, mean ± SE): 110 ± 30 nM; IC50 ([5]; Table 2): 83 ± 20 nM; IC50 ([6]; Table 2, mean ± SE, 72 h): 350 ± 10 nM; IC50 ([7]; Table 2, mean ± SE): 69 ± 10 nM
2 | COc1cc(Nc2cc(C)nc3nc(-c4ccc(F)cc4)nn23)cc(OC)c1OC [Compound 7a, 2-(4-Fluorophenyl)-5-methyl-N-(3,4,5-trimethoxyphenyl)-[1,2,4]triazolo [1,5-a]pyrimidin-7-amine] | 253 °C | 3570 ± 450 nM | 2710 ± 250 nM | > 10000 nM | 2250 ± 190 nM | 3760 ± 190 nM | – | – | – | – | – | – | IC50 [8, 9]: < 2000 nM
3 | Cc1ccc(CNc2nc3nc(C)cc(Nc4ccc(F)c(Cl)c4)n3n2)cc1 [Compound 8d, N^7-(3-Chloro-4-fluorophenyl)-N^2-(4-methylbenzyl)-5-methyl-[1,2,4]triazolo [1,5-a]pyrimidine-2,7-diamine] | 178 to 180 °C | – | – | – | – | – | 290 ± 60 nM | 300 ± 60 nM | 220 ± 40 nM | 800 ± 260 nM | 190 ± 60 nM | – | fold reduction in activity vs 7p ([8]; all cell lines): 1.5–3 fold
4 | COc1cc(Nc2cc(C)nc3nc(NCc4ccc(C(F)(F)F)cc4)nn23)cc(OC)c1OC [Compound 7w, 5-Methyl-N^2-(4-(trifluoromethyl)benzyl)-N^7-(3,4,5-trimethoxyphenyl)-[1,2,4]triazolo [1,5-a]pyrimidine-2,7-diamine] | 174 to 176 °C | 960 ± 60 nM | 1280 ± 130 nM | 590 ± 260 nM | 560 ± 30 nM | 520 ± 20 nM | – | – | – | – | – | < 1000 nM | –
5 | Cc1cc(Nc2ccc(Cl)cc2)n2nc(NCc3ccc4c(c3)OCO4)nc2n1 [Compound 8i, N^2-(Benzo[d][1,3]dioxol-5-ylmethyl)-N^7-(4-chlorophenyl)-5-methyl-[1,2,4]triazolo [1,5-a]pyrimidine-2,7-diamine] | 156 to 158 °C | – | – | – | – | – | 280 ± 50 nM | 810 ± 220 nM | 600 ± 160 nM | 940 ± 340 nM | 190 ± 120 nM | – | fold reduction in potency (vs 7y) [8]: 2–3 fold; fold increase in activity relative to 7ad [3]: 3-4 fold
6 | Cc1cc(Nc2ccc(Br)cc2)n2nc(NCc3ccc4c(c3)OCO4)nc2n1 [Compound 8l, N^2-(Benzo[d][1,3]dioxol-5-ylmethyl)-N^7-(4-bromophenyl)-5-methyl-[1,2,4]triazolo [1,5-a]pyrimidine-2,7-diamine] | 182 to 184 °C | – | – | – | – | – | 260 ± 50 nM | 430 ± 180 nM | 420 ± 20 nM | 1270 ± 450 nM | 220 ± 40 nM | – | fold reduction in potency (vs 7y) [8]: 2–3 fold; fold increase in activity relative to 7ad [3]: 3-4 fold
7 | COc1ccc(CNc2nc3nc(C)cc(Nc4cc(OC)c(OC)c(OC)c4)n3n2)cc1 [Compound 7s, N^2-(4-Methoxybenzyl)-5-methyl-N^7-(3,4,5-trimethoxyphenyl)-[1,2,4]triazolo [1,5-a]pyrimidine-2,7-diamine] | 182 to 184 °C | 900 ± 90 nM | 810 ± 80 nM | 490 ± 60 nM | 1270 ± 120 nM | 220 ± 30 nM | – | – | – | – | – | < 1000 nM | IC50 ([8]; MDA-MB-231, against four of the five cell lines (not MDA-MB-231), read-out: IC50 values, range): 217 to 900 nM; fold reduction in antiproliferative activity vs 7p ([8]; all five lines): 2–5 fold; IC50 ([6]; Homo sapiens, MDA-MB-231): 1300 nM
8 | COc1cc(Nc2cc(C)nc3nc(NCc4ccc(F)cc4)nn23)cc(OC)c1OC [Compound 7l, N^2-(4-Fluorobenzyl)-5-methyl-N^7-(3,4,5-trimethoxyphenyl)-[1,2,4]triazolo [1,5-a]pyrimidine-2,7-diamine] | 156 to 158 °C | 4680 ± 480 nM | 5890 ± 480 nM | 1140 ± 90 nM | 61 ± 9 nM | 1860 ± 130 nM | – | – | – | – | – | – | fold less active than 7e ([8]; in four lines): 2-6 fold; fold more potent than 7e ([6]; MDA-MB-231 cells): 12 fold
9 | COc1cc(Nc2cc(C)nc3nc(Nc4ccc(Cl)cc4)nn23)cc(OC)c1OC [Compound 7f, N2-(4-Chlorophenyl)-5-methyl-N7-(3,4,5-trimethoxyphenyl)-[1,2,4]triazolo [1,5-a]pyrimidine-2,7-diamine] | 251 °C | > 10000 nM | 290 ± 30 nM | 320 ± 40 nM | 470 ± 45 nM | 92 ± 10 nM | – | – | – | – | – | < 1000 nM | –
10 | COc1cc(Nc2cc(C)nc3nc(NCc4cccc(Cl)c4)nn23)cc(OC)c1OC [Compound 7o, N^2-(3-Chlorobenzyl)-5-methyl-N^7-(3,4,5-trimethoxyphenyl)-[1,2,4]triazolo [1,5-a]pyrimidine-2,7-diamine] | 136 to 138 °C | 4720 ± 360 nM | 930 ± 110 nM | 790 ± 90 nM | 60 ± 7 nM | 740 ± 80 nM | – | – | – | – | – | < 1000 nM | fold reduction in activity vs 7n ([8]; four of the five cancer cell lines): 9-24 fold; fold increase in potency vs 7n ([6]; MDA-MB-231 cells): 3 fold
11 | COc1cc(Nc2cc(C)nc3nc(-c4ccc(Cl)cc4)nn23)cc(OC)c1OC [Compound 7b, 2-(4-Chlorophenyl)-5-methyl-N-(3,4,5-trimethoxyphenyl)-[1,2,4]triazolo [1,5-a]pyrimidin-7-amine] | 260 °C | > 10000 nM | > 10000 nM | > 10000 nM | > 10000 nM | 5790 ± 420 nM | – | – | – | – | – | – | IC50 [8, 9]: < 2000 nM
12 | Cc1cc(Nc2ccc(F)c(Cl)c2)n2nc(NCc3ccc4c(c3)OCO4)nc2n1 [Compound 8f, N^2-(Benzo[d][1,3]dioxol-5-ylmethyl)-N^7-(3-chloro-4-fluorophenyl)-5-methyl-[1,2,4]triazolo [1,5-a]pyrimidine-2,7-diamine] | 186 to 188 °C | – | – | – | – | – | 980 ± 60 nM | 440 ± 50 nM | 300 ± 30 nM | 700 ± 160 nM | 160 ± 90 nM | – | fold reduction in potency (vs 7y) [8]: 2–3 fold; fold increase in activity relative to 7ad [3]: 3-4 fold
13 | COc1cc(Nc2cc(C)nc3nc(-c4ccc(C)cc4)nn23)cc(OC)c1OC [Compound 7c, 5-Methyl-2-(p-tolyl)-N-(3,4,5-trimethoxyphenyl)-[1,2,4]triazolo [1,5-a]pyrimidin-7-amine] | 248 °C | 4230 ± 1150 nM | > 10000 nM | > 10000 nM | 2600 ± 270 nM | 2080 ± 190 nM | – | – | – | – | – | – | IC50 [8, 9]: < 2000 nM
